Like-named read-outs stand apart in the source and are kept apart here.
Experiments:
[1] = tested on: HCV replicon RNA replication in Huh-7 luc/neo (Huh-Luc) cells; assay: HCV replicon assay (stable replicon cell reporter assay, luciferase read-out); assay type: cell-based, HCV type 1b
Procedure, shortened: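 Three-day compound exposure used Huh-Luc cells, which harbour an autonomously replicating genotype 1b NS3-NS5B replicon expressing luciferase and neo^R. Luciferase signal served as the replication read-out, and dose-response curves came from several concentrations per compound.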

[2] = biological target: T1, HCV NS5B polymerase (His-tagged, C-terminal 21 amino acid deleted NS5B, HC-J4) (Hepatitis C virus genotype 1b, UniProt O92972); assay: NS5b polymerase assay (biochemical RdRp assay, 3H-GTP incorporation, SPA beads); design: species or system HCV genotype 1b
T1 construct: The cDNA encoding NS5B amino acid 1-570 (HC-J4, genotype 1b); His tag (His6, from pET-21b) (C); made in house; host or cells: E. coli BL21 (DE3)
Procedure, shortened: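 3H-GTP incorporation into newly made RNA was captured on SPA beads added in EDTA after 2 h at 25 °C. Compounds in DMSO met preformed enzyme–template complex (200 nM truncated His-NS5B, HC-J4 1b; biotin-oligo(rG13)/poly(rC)) for 15 min at RT, then 600 nM GTP, 5 mM MgCl2, Tris pH 7.5 started polymerization.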

[3] = Hepatitis C virus, Huh-7, 72 h, read-out: Replicon Assay EC50, Huh-Luc cells, three days incubation, luciferase activity
[4] = NS5B Polymerase Assay IC50, 200 nM enzyme, 3H-GTP incorporation, 2 h at 25° C.
[5] = Hepatitis C virus, Huh-7, 72 h, read-out: Replicon Assay EC50 (μM), Huh-Luc cells, incubation of three days, luciferase activity
[6] = NS5B Polymerase Assay IC50 (μM)
[7] = Huh-Luc cells, three days incubation, luciferase activity, read-out: Replicon Assay EC50
[8] = 200 nM enzyme, 3H-GTP incorporation, 2 h at 25° C., read-out: NS5B Polymerase Assay IC50

T1 sequence (O92972 2417-3000, looked up, stated change not applied): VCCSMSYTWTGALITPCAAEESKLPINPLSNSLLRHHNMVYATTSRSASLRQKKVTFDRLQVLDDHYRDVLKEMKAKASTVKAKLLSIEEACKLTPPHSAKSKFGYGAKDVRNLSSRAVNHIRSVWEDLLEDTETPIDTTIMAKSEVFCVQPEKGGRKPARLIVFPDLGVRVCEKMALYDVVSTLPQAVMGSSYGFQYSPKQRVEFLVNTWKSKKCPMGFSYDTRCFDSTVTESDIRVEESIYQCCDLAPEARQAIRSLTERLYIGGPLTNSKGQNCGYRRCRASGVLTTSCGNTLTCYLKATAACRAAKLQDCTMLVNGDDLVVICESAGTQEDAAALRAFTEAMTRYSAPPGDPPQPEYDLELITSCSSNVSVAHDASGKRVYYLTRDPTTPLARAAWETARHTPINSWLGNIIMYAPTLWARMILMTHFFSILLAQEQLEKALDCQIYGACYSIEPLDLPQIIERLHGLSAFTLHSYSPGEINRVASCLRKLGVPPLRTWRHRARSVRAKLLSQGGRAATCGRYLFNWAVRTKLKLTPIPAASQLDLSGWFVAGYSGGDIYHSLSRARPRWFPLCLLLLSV

Row | SMILES | EC50 [1, 3] | IC50 [2, 4] | other results
1 | CC(=O)N1c2ccccc2NC2=C(C(=O)CC(C)(C)C2)C1c1cc(Cl)ccc1Cl (centres unmarked) [compound 138, 10-acetyl-11-[2,5-dichlorophenyl]-3,3-dimethyl-2,3,4,5,10,11-hexahydro-1H-dibenzo[b,e][1,4]diazepin-1-one] | 26.7 µM | > 133 µM | 
2 | O=C1CC(c2ccccc2)CC2=C1C(c1ccccc1C(F)(F)F)Nc1ccccc1N2 (centres unmarked) [compound 407] |  |  | EC50 [1, 5]: 15.6 µM; IC50 [2, 6]: > 33.3 µM
3 | CCCCCC(=O)N1c2ccccc2NC2=C(C(=O)CC(c3ccc(OC)cc3)C2)C1c1ccc(Cl)cc1 (centres unmarked) [compound 232] |  |  | EC50 [1, 7]: 22.6 µM; IC50 [2, 8]: > 33.3 µM
4 | CCCCOc1cccc(C2C3=C(CC(C)(C)CC3=O)Nc3ccccc3N2C(C)=O)c1 (centres unmarked) [compound 79] | 31.3 µM | > 42.7 µM | 
5 | CCCCCC(=O)N1c2ccccc2NC2=C(C(=O)CC(C)(C)C2)C1c1ccccc1OCc1ccccc1 (centres unmarked) [compound 6] | 7.32 µM | > 42.7 µM | 
6 | O=C1C[C@@H](c2ccc3c(c2)OCO3)CC2=C1[C@H](c1cccnc1)Nc1ccccc1N2 [compound 476] |  |  | EC50 [1, 5]: 22.9 µM; IC50 [2, 6]: > 42.7 µM
7 | COc1ccc(C2C3=C(CC(C)(C)CC3=O)Nc3ccccc3N2C(=O)CSc2nc3ccccc3s2)cc1 (centres unmarked) [compound 21] | 14.2 µM | > 42.7 µM | 
8 | COc1ccc(C2Nc3ccc(C(=O)c4ccccc4)cc3NC3=C2C(=O)CC(C)(C)C3)cc1OC (centres unmarked) [compound 453] |  |  | EC50 [1, 5]: 19.2 µM; IC50 [2, 6]: > 42.7 µM
9 | COc1ccc([C@@H]2CC(=O)C3=C(C2)Nc2ccccc2N[C@H]3c2cc3c(cc2Br)OCO3)cc1 [compound 486] |  |  | EC50 [1, 5]: 3.31 µM; IC50 [2, 6]: > 42.7 µM
10 | CCCCCC(=O)N1c2ccccc2NC2=C(C(=O)CC(c3cccc([N+](=O)[O-])c3)C2)C1c1ccc(OC)c(OC)c1 (centres unmarked) [compound 174] |  |  | EC50 [1, 7]: 1.85 µM; IC50 [2, 8]: > 42.7 µM
11 | CC1(C)CC(=O)C2=C(C1)Nc1cc(Cl)c(Cl)cc1NC2c1ccc(Cl)cc1Cl (centres unmarked) [compound 465, 7,8-Dichloro-11-(2,4-dichlorophenyl)-2,3,4,5,10,11-hexahydro-3,3-dimethyl-1H-dibenzo[b,e][1,4]diazepin-1-one] |  |  | EC50 [1, 5]: 3.84 µM; IC50 [2, 6]: 60 µM
12 | CCC(=O)N1c2ccccc2NC2=C(C(=O)CC(C)(C)C2)C1c1cc(OC)ccc1OC (centres unmarked) [compound 60] | 17.9 µM | > 42.7 µM | 
13 | COc1ccc(C2CC(=O)C3=C(C2)Nc2ccccc2N(C(=O)C(F)(F)F)C3c2ccc(Cl)cc2)cc1OC (centres unmarked) [compound 226] |  |  | EC50 [1, 7]: 16.3 µM; IC50 [2, 8]: > 33.3 µM
14 | CCN(CC)c1ccc(C2CC(=O)C3=C(C2)Nc2ccccc2N(C(=O)c2ccccc2)C3c2ccco2)cc1 (centres unmarked) [compound 295] | 21.6 µM | > 42.7 µM | 
15 | CCC(=O)N1c2ccccc2NC2=C(C(=O)CC(C)(C)C2)C1c1ccc(OC)c(OC)c1 (centres unmarked) [compound 84] | 20.9 µM | > 42.7 µM | 
16 | CC(=O)N1c2ccccc2NC2=C(C(=O)CC(C)(C)C2)C1c1ccc(Oc2ccccc2Br)cc1 (centres unmarked) [compound 147, 10-acetyl-11-[4-(2-bromophenoxy)phenyl]-3,3-dimethyl-2,3,4,5,10,11-hexahydro-1H-dibenzo[b,e][1,4]diazepin-1-one] | 4.22 µM | 1.97 µM | 
17 | CC(=O)N1c2ccccc2NC2=C(C(=O)CC(C)(C)C2)C1c1cccc([N+](=O)[O-])c1 (centres unmarked) [compound 103] | > 32 µM | > 42.7 µM | 
18 | CN(C)c1ccc(C2C3=C(CC(C)(C)CC3=O)Nc3ccccc3N2C(=O)Nc2ccc(Cl)c(Cl)c2)cc1 (centres unmarked) [compound 76] | 6.27 µM | > 33.3 µM | 
19 | CC1(C)CC(=O)C2=C(C1)Nc1ccccc1N(C(=O)C(F)(F)F)C2c1ccc2c(c1)OCO2 (centres unmarked) [compound 266] | 24 µM | > 42.7 µM | 
20 | O=C1CC(c2ccc(Cl)cc2)CC2=C1C(c1cccc(Cl)c1)N(C(=O)C(F)(F)F)c1ccccc1N2 (mixture of isomers) [compound 208] |  |  | EC50 [1, 7]: 11.1 µM; IC50 [2, 8]: > 33.3 µM
21 | COc1ccc(C2CC(=O)C3=C(C2)Nc2ccccc2NC3c2cccc(C)c2)cc1 (centres unmarked) [compound 391] |  |  | EC50 [1, 5]: 18.5 µM; IC50 [2, 6]: > 42.7 µM
22 | CC(=O)N1c2ccccc2NC2=C(C(=O)CC(c3ccccc3F)C2)C1c1ccccc1 (centres unmarked) [compound 236] |  |  | EC50 [1, 7]: 11.8 µM; IC50 [2, 8]: > 42.7 µM
23 | CC1(C)CC(=O)C2=C(C1)Nc1ccccc1N(C(=O)c1ccccc1)C2c1ccc(Cl)cc1 (centres unmarked) [compound 88] | 6.1 µM | 18.5 µM | 
24 | CC1(C)CC(=O)C2=C(C1)Nc1ccccc1N(C(=O)c1ccccc1)C2c1ccc([N+](=O)[O-])cc1 (centres unmarked) [compound 13] | 20.4 µM | > 42.7 µM | 
25 | CCOc1ccccc1C1Nc2ccccc2NC2=C1C(=O)CC(c1ccccc1)C2 (centres unmarked) [compound 393] |  |  | EC50 [1, 5]: 6.84 µM; IC50 [2, 6]: > 33.3 µM

Row | SMILES | EC50 [1, 3] | IC50 [2, 4] | other results
26 | COc1ccc(C2CC(=O)C3=C(C2)Nc2ccccc2N(C(=O)c2ccccc2)C3c2ccc(Cl)cc2)cc1OC (mixture of isomers) [compound 218] |  |  | EC50 [1, 7]: 14.8 µM; IC50 [2, 8]: > 33.3 µM
27 | CCCCCC(=O)N1c2ccccc2NC2=C(C(=O)CC(c3ccco3)C2)C1c1ccc(Cl)cc1 (centres unmarked) [compound 289] | 15.4 µM | > 33.3 µM | 
28 | CC1(C)CC(=O)C2=C(C1)Nc1ccccc1N(C(=O)Cc1ccc(F)cc1)C2c1cccs1 (centres unmarked) [compound 251] | 9.88 µM | > 42.6 µM | 
29 | CC1(C)CC(=O)C2=C(C1)Nc1ccccc1N(C(=O)Cc1ccccc1)C2c1cccs1 (centres unmarked) [compound 240] | 7.73 µM | > 42.7 µM | 
30 | CCOc1ccccc1C1C2=C(CC(c3ccc(OC)cc3)CC2=O)Nc2ccccc2N1C(=O)C(F)(F)F (mixture of isomers) [compound 216] |  |  | EC50 [1, 7]: 25.3 µM; IC50 [2, 8]: > 42.7 µM
31 | COc1ccc([C@@H]2CC(=O)C3=C(C2)Nc2ccccc2N[C@H]3c2coc3ccccc3c2=O)cc1OC [compound 495] |  |  | EC50 [1, 5]: 3.69 µM; IC50 [2, 6]: > 42.7 µM
32 | COc1ccc(C2CC(=O)C3=C(C2)Nc2ccccc2N(C(C)=O)C3c2ccc(Cl)cc2)cc1 (centres unmarked) [compound 165] |  |  | EC50 [1, 7]: 18.6 µM; IC50 [2, 8]: > 33.3 µM
33 | CCCOc1ccccc1C1C2=C(CC(C)(C)CC2=O)Nc2ccccc2N1C(C)=O (centres unmarked) [compound 130] | > 32 µM | > 42.7 µM | 
34 | CC1(C)CC(=O)C2=C(C1)Nc1ccccc1N(C(=O)c1ccccc1)C2c1ccc(Br)cc1 (centres unmarked) [compound 74] | > 26.7 µM | > 42.7 µM | 
35 | CC1(C)CC(=O)C2=C(C1)Nc1ccccc1NC2c1cccc(Cl)c1Cl (centres unmarked) [compound 427] |  |  | EC50 [1, 5]: 20.7 µM; IC50 [2, 6]: > 42.7 µM
36 | CC(C)C(=O)N1c2ccccc2NC2=C(C(=O)CC(C)(C)C2)C1c1ccc(Cl)cc1Cl (centres unmarked) [compound 28] | 5.52 µM | > 42.7 µM | 
37 | CC(=O)N1c2ccccc2NC2=C(C(=O)CC(C)(C)C2)C1c1cccc(Oc2ccccc2Br)c1 (centres unmarked) [compound 149, 10-acetyl-11-[3-(2-bromophenoxy)phenyl]-3,3-dimethyl-2,3,4,5,10,11-hexahydro-1H-dibenzo[b,e][1,4]diazepin-1-one] | 1.78 µM | 30.4 µM | 
38 | O=C1CC(c2ccccc2)CC2=C1C(c1ccccc1OCc1ccccc1)Nc1ccccc1N2 (centres unmarked) [compound 365] |  |  | EC50 [1, 5]: 5.24 µM; IC50 [2, 6]: 27.3 µM
39 | CCOc1ccccc1C1CC(=O)C2=C(C1)Nc1ccccc1N(C(=O)CC)C2c1ccc(OC)cc1 (centres unmarked) [compound 219] |  |  | EC50 [1, 7]: 2.26 µM; IC50 [2, 8]: > 42.7 µM
40 | CCCCC(CC)C(=O)N1c2ccccc2NC2=C(C(=O)CC(C)(C)C2)C1c1ccc(OCCC)c(OC)c1 (centres unmarked) [compound 98] | 7.33 µM | > 42.7 µM | 
41 | CC(=O)N1c2ccccc2NC2=C(C(=O)CC(c3ccccc3OCc3ccccc3)C2)C1c1ccc(Cl)cc1Cl (single isomer, unassigned) [compound 186, 10-Acetyl-3-(2-benzyloxyphenyl)-11-(2,4-dichlorophenyl)-2,3,4,5,10,11-hexahydro-dibenzo[b,e][1,4]diazepin-1-one] | 2.03 µM | 40.9 µM | 
42 | CCCCC(=O)N1c2ccccc2NC2=C(C(=O)CC(C)(C)C2)C1c1cccs1 (centres unmarked) [compound 263] | 10.4 µM | > 42.7 µM | 
43 | CCOc1ccc(C2Nc3ccccc3NC3=C2C(=O)CC(c2ccc(OC)cc2)C3)cc1 (centres unmarked) [compound 332] |  |  | EC50 [1, 5]: 9.74 µM; IC50 [2, 6]: > 42.7 µM
44 | CC1(C)CC(=O)C2=C(C1)Nc1ccccc1NC2c1cccc(OCc2ccccc2)c1 (centres unmarked) [compound 437, 11-(3-benzyloxyphenyl)-3,3-dimethyl-2,3,4,5,10,11-hexahydro-1H-dibenzo[b,e][1,4]diazepin-1-one] |  |  | EC50 [1, 5]: 6.35 µM; IC50 [2, 6]: 32.9 µM
45 | CC1(C)CC(=O)C2=C(C1)Nc1ccccc1N(C(=O)c1ccccc1)C2/C=C/c1ccccc1 (centres unmarked) [compound 264] |  |  | EC50 [1, 7]: 8.87 µM; IC50 [2, 8]: > 42.7 µM
46 | O=C1C[C@@H](c2ccc3c(c2)OCO3)CC2=C1[C@H](c1ccc3c(c1)OCO3)Nc1ccccc1N2 [compound 492] |  |  | EC50 [1, 5]: 11 µM; IC50 [2, 6]: > 42.7 µM
47 | CC(=O)N1c2c(C)cccc2NC2=C(C(=O)CC(C)(C)C2)C1c1ccc(Cl)cc1Cl (centres unmarked) [compound 314] | 3 µM | 4.43 µM | 
48 | CC1(C)CC(=O)C2=C(C1)Nc1ccccc1NC2c1c(F)cccc1Cl (centres unmarked) [compound 428] |  |  | EC50 [1, 5]: 16 µM; IC50 [2, 6]: > 42.7 µM
49 | CC1(C)CC(=O)C2=C(C1)Nc1ccccc1N(C(=O)C(F)(F)F)C2c1cccs1 (centres unmarked) [compound 267] | 9.39 µM | > 42.7 µM | 
